The test system of experiment [1] is spontaneous [3H]-DA efflux from mouse striatal synaptosomes. In words: Spontaneous [3H]-DA release from striatal synaptosomes. The class given is biochemical. Conditions: amphetamine 10 µM, cocaine 100 nM, JWH-018 and AKB48 100 nM and 1 µM. On the procedure:
(§1) On the day of the experiment, the animal was euthanized, the brain was rapidly removed, and both striata isolated. Thereafter, a crude synaptosomal (P2) fraction was prepared as follows: the striata were suspended in ice-cold buffered sucrose solution (0.32 M, pH 7.4) and homogenized. The homogenate was centrifuged (10 min, 2,100 g, 4°C) to remove nuclei and debris. The supernatant was further centrifuged at 13,500 g for 20 min at 4°C. For [^3H]-WIN 35,428 binding experiments, the P2 pellet was resuspended in 50 mM Tris–HCl, 100 mM NaCl, pH 7.4. For [^3H]-DA release experiments, the P2 pellet was then resuspended in 5 ml of Kreb’s solution (mM: NaCl 118; KCl 4.4; CaCl2 1.2; MgSO4 1.2; KH2PO4 1.2; NaHCO3 25; glucose 10), gassed 20 min with a mixture of 95% O2 plus 5% CO2 containing [^3H]-DA (50 nM; Perkin Elmer, Monza, Italy), disodium EDTA (0.03 mM), and ascorbic acid (0.05 mM; to prevent [^3H]-DA degradation).
After synaptosomal preparation, 0.5 ml aliquots of the suspension were distributed on microporous filters placed at the bottom of a set of parallel superfusion chambers maintained at 37°C and perfused with aerated (95% O2/5% CO2) Kreb’s solution (0.3 ml/min). After 30 min of superfusion to equilibrate the system, 5-min fractions were collected from the 30th to the 75th min (nine samples). […] At the end of the experiment, the radioactivity of the samples and filters was determined by liquid scintillation spectrometry (LS1800 Beckman). In view of the results obtained, in a separate set of experiments, [^3H]-DA uptake was also evaluated.

In experiment [2] the target is T1, human DAT (Homo sapiens, UniProt Q01959).
T1 construct: purchased Perkin Elmer; host or cells: CHO cells transfected with human DAT (membrane preparation)
T1 sequence (Q01959 whole entry): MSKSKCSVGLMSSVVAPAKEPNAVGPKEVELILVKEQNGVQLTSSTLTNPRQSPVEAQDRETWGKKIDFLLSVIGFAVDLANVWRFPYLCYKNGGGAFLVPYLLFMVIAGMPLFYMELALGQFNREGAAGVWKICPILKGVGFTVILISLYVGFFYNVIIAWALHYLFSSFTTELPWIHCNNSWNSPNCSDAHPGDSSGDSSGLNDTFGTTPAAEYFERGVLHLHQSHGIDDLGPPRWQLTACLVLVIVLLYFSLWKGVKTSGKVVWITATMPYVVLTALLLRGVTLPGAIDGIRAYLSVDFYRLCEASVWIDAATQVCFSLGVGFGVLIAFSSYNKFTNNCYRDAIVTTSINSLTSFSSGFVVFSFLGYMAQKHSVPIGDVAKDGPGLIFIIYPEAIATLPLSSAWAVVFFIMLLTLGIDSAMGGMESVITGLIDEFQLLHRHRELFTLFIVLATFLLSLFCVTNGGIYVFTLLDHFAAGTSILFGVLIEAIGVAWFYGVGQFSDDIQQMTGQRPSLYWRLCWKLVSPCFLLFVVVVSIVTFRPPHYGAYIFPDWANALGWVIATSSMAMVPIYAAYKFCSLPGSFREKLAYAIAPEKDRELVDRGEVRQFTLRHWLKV
In words: [3H]-WIN 35,428 competition binding, CHO membranes transfected with human DAT. On the procedure:
At the end of the incubation time, bound and free radioactivity were separated by filtering the assay mixture through Whatman GF/B glass fiber filters in a Brandel cell harvester (Brandel, Unterföhring, Germany).

In experiment [3] the test system is male CD-1 mice. In words: Spontaneous locomotor activity (ANY-maze video tracking). The conditions noted are these: for immobility time: AKB48 1 mg/kg (30 min after administration); for immobility time / total distance traveled (spontaneous locomotion): amphetamine 10 mg/kg; for immobility time / total distance traveled (spontaneous locomotion) / duration of the increase of spontaneous locomotion / time spent in the peripheral arena: cocaine 20 mg/kg; for total distance traveled (spontaneous locomotion): monitored 240 min; for spontaneous locomotion, antagonist by itself: AM 251 1 mg/kg i.p., SCH23390 0.1 mg/kg i.p., haloperidol 0.05 mg/kg i.p.; for time spent in the peripheral arena: acute i.p.: amphetamine 10 mg/kg. The format is in vivo, mouse. How it is done:
Drugs were administered by intraperitoneal injection in a volume of 4 μl/g. The used doses of JWH-018 (0.3 and 1 mg/kg i.p.) and AKB48 (0.3 and 1 mg/kg i.p.) were chosen based on previous studies ([6], [7], [9], [10]).
The spontaneous locomotor activity was measured by using the ANY-maze video tracking system (Ugo Basile, application version 4.99 g Beta). The mouse was placed in a square plastic cage (60 cm × 60 cm) located in a sound- and light-attenuated room and motor activity was monitored for 240 min. Four mice were monitored in parallel in each experiment. Parameters measured were distance traveled (meter), total time in the peripheral zone (seconds), total time in the central zone (seconds), and immobility time (seconds; the animal was considered immobile when 95% of his image remained in the same place for at least 2 s). Parameters were analyzed every 15 min for a maximum of 240 min and to avoid mice olfactory cues, cages were carefully cleaned with a dilute (5%) ethanol solution and washed with water between animal trials. All experiments were performed between 9:00 a.m. and 1:00 p.m.

For experiment [4], the system named is [3H]-DA uptake in mouse striatal synaptosomes. In words: [3H]-DA uptake in striatal synaptosomes. The class given is biochemical. Conditions: for reduction of [3H]-DA uptake: cocaine 1 µM, amphetamine 1 µM, added 5 min before 50 nM [3H]-DA, 10 min at 37°C. How it is done: as §1
After synaptosomal preparation, the suspension was maintained under a light and continuous oxygenation (95% O2, 5% CO2) for 20 min at 37°C. Thereafter, 0.5 ml aliquots of striatal synaptosomal suspension were prepared. […] After this period, the reaction was stopped by filtration through microporus nylon filters (0.45 µm, 13 mm; Analytical Technology, Brugherio, Italy). The filters were then washed with 1 ml ice-cold Kreb’s solution and the radioactivity accumulated on synaptosomes was extracted by eluting two times with 1 ml of warm NaOH (1 N) and then determined by liquid scintillation spectrometer. Non-specific uptake was measured by following the same procedure at 0°C.

Experiment [5] addresses T2, mouse DAT (Mus musculus, UniProt Q61327).
T2 construct: DAT expressed in mouse striatal nerve terminals; from tissue; host or cells: mouse striatum, crude synaptosomal (P2) fraction
In words: [3H]-WIN 35,428 competition binding, mouse striatal synaptosomes. On the procedure:
Competition binding experiments were carried out incubating 8 nM [^3H]-WIN 35,428 (specific activity 84 Ci/mmol; Perkin Elmer, Boston, MA, USA) with CHO membranes transfected with human DAT (Perkin Elmer) or mouse striatal synaptosomes with different concentration of the examined compounds for 120 min at 4°C. Non-specific binding was determined in the presence of 1 µM GBR 12783. At the end of the incubation time, bound and free radioactivity were separated by filtering the assay mixture through Whatman GF/B glass fiber filters in a Brandel cell harvester (Brandel, Unterföhring, Germany). Filter bound radioactivity was counted in a Perkin Elmer 2810TR scintillation counter (Perkin Elmer).
as §1

Experiment [6] concerns the target T3, dopamine transporter (DAT) in the mouse striatum (Mus musculus, UniProt Q61327).
T3 construct: from tissue; host or cells: striatum of living CD-1 male mice (in vivo imaging)
In words: In vivo DaTSCAN SPECT-CT imaging, striatal [123I]-FP-CIT binding. The conditions noted are these: i.p. 30 min before tracer: cocaine 20 mg/kg, amphetamine 10 mg/kg, JWH-018 1 mg/kg, AKB48 1 mg/kg.
Procedure: 18 CD-1 male mice were divided into six different groups (three mice per treatment). […] A control group (i.e., naïve untreated mice) was also included in the study. Thirty minutes after drug administration, all mice were submitted to an intravenous injection with a solution of [^123I]-DaTSCAN (15–20 MBq, ≤200 µl). The body temperature of the animals was maintained at 37°C during the imaging sessions and under the cage, between imaging sessions, using a heating lamp. The SPECT–CT whole-body images were acquired at 1 h and 30 min after [^123I]-FP-CIT injection, with the initial tomographic acquisition starting nearly 15 min after the injection. Each SPECT-CT whole-body acquisition consisted of one bed positions (36 mm), 60 min, 128 views over 360 ([35]). The used energy window is 119–219 keV and the images were reconstructed by using the iterative EM-ML algorithm, including the collimator response. CT images have been acquired, using the digital X-ray imaging system integrated into the YAP(S)PET scanner ([36]). Acquisition parameters for X-ray projections were X-ray tube voltage = 35 keV, anode current = 1 mA, exposure = 1 s, 64 views over 360, and magnification factor = 1.2. Subtraction of dark noise contribution and flat field corrections was accomplished to obtain final images. The CT data were reconstructed by using the FDK algorithm. Amide software ([37]) has been used for images’ registration, visualization and analysis. The size of the ROIs was voxels (100 mm^3 volume), corresponding to entire striatum. These ROIs were used as a template. To avoid the variability of the slice selection and to gain statistical power, the entire striatum volume for the analysis was used. The template was positioned manually (without changing the size and form of the ROIs) on the SPECT images with the backing of anatomical information from LONI MAP 2003 MRI mouse atlas ([38], [39]). For analysis of striatal [^123I]-FP-CIT binding, two consecutive horizontal slices (total thickness approximately 4 mm) with the highest striatal binding were selected. The landmarks for positioning were the intra-orbital glands, striatum, and the borders of the brain. Striatal binding ratios are expressed as average activity per unit volume [Bq/mm^3], each value has been calculated as the ratio between the activity inside the ROI and the ROI volume, normalized for injected activity and for mouse brain weight.

For experiment [7], the system named is DA release in the nucleus accumbens (NAc) shell. In words: In vivo brain microdialysis, NAc shell extracellular DA. Further details: species or system mouse. How it is done:
Male ICR (CD-1®) mice, 25–30 g (ENVIGO. Harlan Italy; S. Pietro al Natisone, Italy) were anesthetized with Isoflurane (3%; 200 ml/min) and implanted with vertical dialysis probe (1 mm dialyzing portion) prepared with AN69 fibers (Hospal Dasco, Bologna, Italy) in the NAc shell (A + 1.4, L 0.4 from bregma, V-4.8 from dura) according to the mouse brain atlas by Paxinos and Franklin ([40]). On the day following surgery, probes were perfused with Ringer’s solution (147 mM NaCl, 4 mM KCl, 2.2 mM CaCl2) at a constant rate of 1 µl/min. Dialyzate samples (10 µl) were injected into an HPLC equipped with a reverse phase column (C8 3.5 um, Waters, USA) and a coulometric detector (ESA, Coulochem II) to quantify DA. The first electrode of the detector was set at +130 mV (oxidation) and the second at −175 mV (reduction). The composition of the mobile phase was as follows: 50 mM NaH2PO4, 0.1 mM Na2-EDTA, 0.5 mM n-octyl sodium sulfate, 15% (v/v) methanol, pH 5.5. […] At the end of each experiment, animals were sacrificed and their brains removed and stored in formalin (8%) for histological examination to verify the correct placement of the microdialysis probe.

The target in experiment [8] is CD-1 murine CB1 receptors. Conditions: ref [6]; read-out: Ki for CB1 receptors, CD-1 murine preparation; cited from earlier work.
[9] abbreviates: acute i.p.: JWH-018 0.3 mg/kg, AKB48 1 mg/kg.

The structures appear in SMILES notation. Where a name gives a salt, the structure may show the parent alone. Read-outs that look alike come from different tables or passages of the source.

T2 sequence (Q61327 whole entry): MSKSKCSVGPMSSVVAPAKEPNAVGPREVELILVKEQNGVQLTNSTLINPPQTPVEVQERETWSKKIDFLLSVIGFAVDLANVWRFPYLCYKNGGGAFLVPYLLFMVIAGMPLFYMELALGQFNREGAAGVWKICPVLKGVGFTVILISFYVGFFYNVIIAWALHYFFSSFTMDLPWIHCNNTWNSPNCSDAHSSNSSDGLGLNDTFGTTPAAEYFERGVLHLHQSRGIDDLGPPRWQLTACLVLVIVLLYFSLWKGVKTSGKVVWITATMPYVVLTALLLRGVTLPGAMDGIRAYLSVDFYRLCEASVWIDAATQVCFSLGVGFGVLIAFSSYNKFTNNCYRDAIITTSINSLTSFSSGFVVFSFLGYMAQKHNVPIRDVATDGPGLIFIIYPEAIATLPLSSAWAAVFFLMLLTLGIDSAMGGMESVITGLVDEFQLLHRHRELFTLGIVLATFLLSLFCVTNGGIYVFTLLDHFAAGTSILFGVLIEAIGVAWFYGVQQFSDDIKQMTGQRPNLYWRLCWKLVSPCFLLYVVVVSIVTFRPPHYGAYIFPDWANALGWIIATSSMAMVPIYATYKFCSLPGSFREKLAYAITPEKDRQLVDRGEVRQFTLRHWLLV
T3 sequence (Q61327 whole entry): as above

Take `CCCCCn1nc(C(=O)NC23CC4CC(CC(C4)C2)C3)c2ccccc21` [AKB48, N-(1-adamantyl)-1-pentyl-1H-indazole-3-carboxamide]: the “spontaneous [3H]-DA efflux from striatal synaptosomes” value (shortened to “spontaneous [3H]-DA efflux”) in experiment [1] is “did not affect”. Moreover, the Ki in experiment [2] is 4590 nM; in experiment [5] it was > 10000 nM; in experiment [8], 5.34 nM. For the same molecule, the “facilitation of spontaneous locomotion after pretreatment with AM 251” value in experiment [3] (JWH-018 0.3 mg/kg, AKB48 1 mg/kg, AM 251 1 mg/kg i.p. 20 min before) is on record as “prevented”. For the same molecule, the “facilitation of spontaneous locomotion after coadministration of SCH23390 and haloperidol” value in experiment [3] (JWH-018 0.3 mg/kg, AKB48 1 mg/kg, SCH23390 0.1 mg/kg i.p. + haloperidol 0.05 mg/kg i.p. 20 min before) is “prevented”. The “time in the central zone versus peripheral area of the cage” value in experiment [3] (setting [9]) is recorded as “spent more time in the central zone”. In experiment [3] (acute i.p.: JWH-018 0.3 mg/kg), the immobility time entry is recorded as “increased”. The “total distance traveled (spontaneous locomotion)” value (from here on “total distance traveled”) in experiment [3] (setting [9]) is on record as “facilitated the spontaneous locomotion only in the first 15 min”. Moreover, the “duration of the increase of spontaneous locomotion” value in experiment [3] (setting [9]) was 15 min. The “effect on [3H]-DA uptake” value in experiment [4] (GBR 12783 20 nM, JWH-018 and AKB48 100 nM and 1 µM) was “ineffective”. Also, the “reduction of [123I]-FP-CIT binding in the striatum” value (from here on “reduction of [123I]-FP-CIT binding”) in experiment [6] is given as ~ 42%. Besides, the “time of peak extracellular DA level after administration” value in experiment [7] (AKB48 0.3 mg/kg i.p.) is 40 min. Further, the “increase of NAc shell extracellular DA levels (maximal/peak)” value in experiment [7] (JWH-018 0.3 mg/kg i.p. (long-lasting), AKB48 0.3 mg/kg i.p. (peak)) is ~ 150 % of baseline values. Also, the “NAc shell extracellular DA levels” value in experiment [7] (awake freely moving mice, i.p.: amphetamine 10 mg/kg, cocaine 20 mg/kg, JWH-018 0.3 mg/kg, AKB48 0.3 mg/kg) is given as “significantly increased”.
For the molecule `Cc1c(C(=O)NN2CCCCC2)nn(-c2ccc(Cl)cc2Cl)c1-c1ccc(I)cc1` [AM 251, reference compound], the “spontaneous locomotion, antagonist by itself” value in experiment [3] is listed as “did not alter the spontaneous locomotion”.
Consider `CC(N)Cc1ccccc1` (centres unmarked) [Amphetamine, reference compound], for which the “spontaneous [3H]-DA efflux” value in experiment [1] was “induced a significant increase”. Also, in experiment [3] (acute i.p.: JWH-018 0.3 mg/kg), the immobility time entry is given as “reduced the immobility time”. Further, the “total distance traveled” value in experiment [3] (setting [9]) is given as “induced long-lasting increases”. Besides, in experiment [3], the “time spent in the peripheral arena” value is “increase the time spent in the peripheral arena”. The “reduction of [3H]-DA uptake” value in experiment [4] is on record as ~40%. In experiment [5], this molecule returned a Ki of 622 ± 53 nM. Further, the “reduction of [123I]-FP-CIT binding” value in experiment [6] is ~ 25%.
With `COC(=O)[C@H]1[C@@H](OC(=O)c2ccccc2)C[C@@H]2CC[C@H]1N2C` [Cocaine, reference compound], the “spontaneous [3H]-DA efflux” value in experiment [1] is on record as “induced a significant increase”. In experiment [3] (acute i.p.: JWH-018 0.3 mg/kg), the immobility time result is listed as “reduced the immobility time”. Besides, in experiment [3] (setting [9]), the “total distance traveled” value was “induced long-lasting increases” and the “duration of the increase of spontaneous locomotion” value is given as 90 min. In addition, the “time spent in the peripheral arena” value in experiment [3] is given as “increase the time spent in the peripheral arena”. Also, the “reduction of [3H]-DA uptake” value in experiment [4] is recorded as ~50%. Further, the Ki in experiment [5] came out at 193 ± 16 nM. Further, the “reduction of [123I]-FP-CIT binding” value in experiment [6] is ~ 40%.
As for `C(=C\c1ccccc1)/CN1CCN(CCOC(c2ccccc2)c2ccccc2)CC1` [GBR 12783, 1-(2-benzhydryloxyethyl)-4-[(E)-3-phenylprop-2-enyl]piperazine;dihydrochloride, reference compound], the Ki in experiment [2] (8 nM [3H]-WIN 35,428, 120 min at 4°C, mean ± SEM, read-out: hDAT-CHO membranes Ki) was 1.93 ± 0.14 nM; in experiment [5] (8 nM [3H]-WIN 35,428, 120 min at 4°C, mean ± SEM, read-out: Mouse striatal synaptosomes Ki), 1.72 ± 0.11 nM.
As for `CN1CCc2cc(Cl)c(O)cc2C(c2ccccc2)C1` (centres unmarked) [SCH23390, 8-chloro-3-methyl-5-phenyl-1,2,4,5-tetrahydro-3-benzazepin-7-ol, reference compound], the “spontaneous locomotion, antagonist by itself” value in experiment [3] is “did not alter the spontaneous locomotion”.
With `O=C(CCCN1CCC(O)(c2ccc(Cl)cc2)CC1)c1ccc(F)cc1` [haloperidol, 4-[4-(4-chlorophenyl)-4-hydroxypiperidin-1-yl]-1-(4-fluorophenyl)butan-1-one, reference compound], the “spontaneous locomotion, antagonist by itself” value in experiment [3] is listed as “did not alter the spontaneous locomotion”.

Source of the values: publication PMC5543288, “Psychostimulant Effect of the Synthetic Cannabinoid JWH-018 and AKB48: Behavioral, Neurochemical, and Dopamine Transporter Scan Imaging Studies in Mice” (Frontiers in Psychiatry, 2017).
